Test results published in article PMC3337333 (Bioorganic & medicinal chemistry letters, 2012).

Assays:
[1] = tested on: Hsp90 in HCT 116 cells; test: Immunofluorescence staining of Hsp90 in treated colon cancer cells; format: cell-based; details: 17-AAG 24 hours 200 nM, compound 3 and compound 4 72 hours 5 µM, polyclonal antibody to Hsp90
[2] = target: Hsp90-TPR protein complexes; details: C-terminal binder; ref [21]; cited from earlier work
[3] = tested on: apoptosis; details: ref [4]; cited from earlier work

C=CCNC1=C2C[C@@H](C)C[C@H](OC)[C@H](O)[C@@H](C)/C=C(\C)[C@H](OC(N)=O)[C@@H](OC)/C=C\C=C(/C)C(=O)NC(=CC1=O)C2=O [17-AAG, 17-(allylamino)-17-demethoxygeldanamycin]
Hsp90 staining in cytosol versus DMSO control [1]: intensify in brightness

CO[C@@H]1[C@@H](OC(N)=O)[C@@H](O)[C@H](Oc2ccc3c(O)c(NC(=O)c4ccc(O)c(CC=C(C)C)c4)c(=O)oc3c2C)OC1(C)C [novobiocin]
IC50, inhibition of binding between Hsp90 and four TPR-containing co-chaperones [2]: millimolar range

Sansalvamide A-amide [compound 1]
induction of apoptosis [3]: induce apoptosis
